Peptide text beside a SMILES is read from it. * marks the point of attachment. Dansyl = CN(C)c1cccc2c(S(=O)(=O)*)cccc12; K(dns) = dansyl-lysine
Test system: P100 membrane fraction of Caco-2 cells
Assay: Dansylated peptide ELISA: relative binding of PAX2 and HAX42 peptides to P100 fractions (ratio to ZElan021)
Conditions: ratio to ZElan021 = 1.00
Procedure: The peptides and proteins were analyzed by a dansylated peptide ELISA method in which 96 well plates were coated overnight at 4° C. with 100 μl/well coating protein (normally 100 μg/ml P100 membrane fraction) in 0.05M carbonate buffer pH9.6. Nonspecific binding was blocked using 200 μl/well, 2% Marvel/PBS for 2 hours at 37° C. prior to incubation with dansylated peptides. The plates were washed three times with PBS/0.05% Tween 20 and after each subsequent incubation step. […] A buffer blank control was included to ensure that background binding to plastic was not due to the antibodies used in the assay system. […] Plates were developed using 75 μl/well Bionostics TMB substrate and incubated for approximately 10 minutes. The developing reaction was stopped using Bionostics Red Stop solution (25 μl/well), and the optical density of the plates was read at 650 nm. […]

Row | Compound | Binding value at 20 μg/ml (PAX2 peptides, first column) | Binding value at 50 μg/ml (Jackson Ab) (PAX2 peptides) | Binding value at 50 μg/ml (Southern Ab) (PAX2 peptides) | Binding value at 50 μg/ml (PAX2 peptides, first column) | Binding value at 50 μg/ml (PAX2 peptides, second column) | other results
1 | CC(C)C[C@H](NC(=O)[C@H](CCCNC(=N)N)NC(=O)[C@H](CCCNC(=N)N)NC(=O)[C@H](CC(N)=O)NC(=O)[C@H](Cc1c[nH]cn1)NC(=O)[C@H](C)NC(=O)[C@H](CO)NC(=O)[C@@H](N)CCCCNS(=O)(=O)c1cccc2c(N(C)C)cccc12)C(=O)N[C@@H](CCCNC(=N)N)C(=O)N[C@H](C(=O)N[C@@H](CCCNC(=N)N)C(N)=O)[C@@H](C)O [ZElan074] (H-K(Dansyl)SAHNRRLRTR-NH2) | 0.06 | 0.71 | 0.48 | 0.82 | 0.52 | –
2 | CC(C)C[C@H](NC(=O)[C@H](CCCNC(=N)N)NC(=O)[C@H](CCCNC(=N)N)NC(=O)[C@H](CC(N)=O)NC(=O)[C@H](C)NC(=O)[C@H](CO)NC(=O)[C@H](CO)NC(=O)[C@@H](N)CCCCNS(=O)(=O)c1cccc2c(N(C)C)cccc12)C(=O)N[C@@H](CCCNC(=N)N)C(=O)N[C@H](C(=O)N[C@@H](CCCNC(=N)N)C(N)=O)[C@@H](C)O [ZElan075] (H-K(Dansyl)SSANRRLRTR-NH2) | 0.13 | 0.47 | 0.32 | 0.52 | 0.38 | –
3 | CC(C)C[C@H](NC(=O)[C@H](CCCNC(=N)N)NC(=O)[C@H](CCCNC(=N)N)NC(=O)[C@H](C)NC(=O)[C@H](Cc1c[nH]cn1)NC(=O)[C@H](CO)NC(=O)[C@H](CO)NC(=O)[C@@H](N)CCCCNS(=O)(=O)c1cccc2c(N(C)C)cccc12)C(=O)N[C@@H](CCCNC(=N)N)C(=O)N[C@H](C(=O)N[C@@H](CCCNC(=N)N)C(N)=O)[C@@H](C)O [ZElan076] (H-K(Dansyl)SSHARRLRTR-NH2) | 0.08 | 0.60 | 0.42 | 1.00 | 0.41 | –
4 | CC(C)C[C@H](NC(=O)[C@H](CCCNC(=N)N)NC(=O)[C@H](C)NC(=O)[C@H](CC(N)=O)NC(=O)[C@H](Cc1c[nH]cn1)NC(=O)[C@H](CO)NC(=O)[C@H](CO)NC(=O)[C@@H](N)CCCCNS(=O)(=O)c1cccc2c(N(C)C)cccc12)C(=O)N[C@@H](CCCNC(=N)N)C(=O)N[C@H](C(=O)N[C@@H](CCCNC(=N)N)C(N)=O)[C@@H](C)O [ZElan077] (H-K(Dansyl)SSHNARLRTR-NH2) | 0.20 | 0.73 | 0.52 | 0.76 | 0.54 | –
5 | CC(C)C[C@H](NC(=O)[C@H](C)NC(=O)[C@H](CCCNC(=N)N)NC(=O)[C@H](CC(N)=O)NC(=O)[C@H](Cc1c[nH]cn1)NC(=O)[C@H](CO)NC(=O)[C@H](CO)NC(=O)[C@@H](N)CCCCNS(=O)(=O)c1cccc2c(N(C)C)cccc12)C(=O)N[C@@H](CCCNC(=N)N)C(=O)N[C@H](C(=O)N[C@@H](CCCNC(=N)N)C(N)=O)[C@@H](C)O [ZElan078] (H-K(Dansyl)SSHNRALRTR-NH2) | 0.11 | 0.68 | 0.47 | 0.87 | 0.69 | –
6 | C[C@H](NC(=O)[C@H](CCCNC(=N)N)NC(=O)[C@H](CCCNC(=N)N)NC(=O)[C@H](CC(N)=O)NC(=O)[C@H](Cc1c[nH]cn1)NC(=O)[C@H](CO)NC(=O)[C@H](CO)NC(=O)[C@@H](N)CCCCNS(=O)(=O)c1cccc2c(N(C)C)cccc12)C(=O)N[C@@H](CCCNC(=N)N)C(=O)N[C@H](C(=O)N[C@@H](CCCNC(=N)N)C(N)=O)[C@@H](C)O [ZElan079] (H-K(Dansyl)SSHNRRARTR-NH2) | 0.31 | 0.83 | 0.53 | 0.97 | 0.68 | –
7 | CC(C)C[C@H](NC(=O)[C@H](CCCNC(=N)N)NC(=O)[C@H](CCCNC(=N)N)NC(=O)[C@H](CC(N)=O)NC(=O)[C@H](Cc1c[nH]cn1)NC(=O)[C@H](CO)NC(=O)[C@H](CO)NC(=O)[C@@H](N)CCCCNS(=O)(=O)c1cccc2c(N(C)C)cccc12)C(=O)N[C@@H](C)C(=O)N[C@H](C(=O)N[C@@H](CCCNC(=N)N)C(N)=O)[C@@H](C)O [ZElan080] (H-K(Dansyl)SSHNRRLATR-NH2) | 0.23 | 0.67 | 0.38 | 0.84 | 0.45 | –
8 | CC(C)C[C@H](NC(=O)[C@H](CCCNC(=N)N)NC(=O)[C@H](CCCNC(=N)N)NC(=O)[C@H](CC(N)=O)NC(=O)[C@H](Cc1c[nH]cn1)NC(=O)[C@H](CO)NC(=O)[C@H](CO)NC(=O)[C@@H](N)CCCCNS(=O)(=O)c1cccc2c(N(C)C)cccc12)C(=O)N[C@@H](CCCNC(=N)N)C(=O)N[C@@H](C)C(=O)N[C@@H](CCCNC(=N)N)C(N)=O [ZElan081] (H-K(Dansyl)SSHNRRLRAR-NH2) | 0.01 | – | – | 0.89 | 0.47 | –
9 | CC(C)C[C@H](NC(=O)[C@H](CCCNC(=N)N)NC(=O)[C@H](CCCNC(=N)N)NC(=O)[C@H](CC(N)=O)NC(=O)[C@H](Cc1c[nH]cn1)NC(=O)[C@H](CO)NC(=O)[C@H](CO)NC(=O)[C@@H](N)CCCCNS(=O)(=O)c1cccc2c(N(C)C)cccc12)C(=O)N[C@@H](CCCNC(=N)N)C(=O)N[C@H](C(=O)N[C@@H](C)C(N)=O)[C@@H](C)O [ZElan082] (H-K(Dansyl)SSHNRRLRTA-NH2) | 0.00 | – | – | 0.92 | 0.40 | –
10 | CC(C)C[C@H](NC(=O)[C@H](CCCNC(=N)N)NC(=O)[C@H](CO)NC(=O)[C@@H](NC(=O)[C@H](CCCCN)NC(=O)[C@H](CC(N)=O)NC(=O)[C@H](CCCNC(=N)N)NC(=O)[C@@H](NC(=O)[C@H](CC(N)=O)NC(=O)[C@H](CCCNC(=N)N)NC(=O)[C@@H](N)CCCCNS(=O)(=O)c1cccc2c(N(C)C)cccc12)[C@@H](C)O)[C@@H](C)O)C(=O)N[C@@H](CO)C(=O)N[C@@H](C)C(=O)N[C@@H](CC(N)=O)C(=O)N1CCC[C@H]1C(=O)N[C@@H](Cc1c[nH]cn1)C(=O)N[C@@H](CCCNC(=N)N)C(=O)N[C@@H](CO)C(=O)N[C@@H](Cc1c[nH]cn1)C(=O)N[C@@H](CCCNC(=N)N)C(N)=O [ZElan084] (H-K(Dansyl)RNTRNKTSRLSANPHRSHR-NH2) | – | – | – | – | 0.77 | Binding value at 20 μg/ml (PAX2 peptides, second column): 0.93
11 | H2N-K(dns)SDHALGTNLRSDNAKEPGDYNCCGNG-CONH2 ({K(dns)}-SDHALGTNLRSDNAKEPGDYNCCGNG-NH2; cysteine pairing not given here) [ZElan06O] | – | – | – | – | – | Binding value at 20 μg/ml (HAX42 peptides): 0.44; Binding value at 50 μg/ml (HAX42 peptides, first column): 0.56; Binding value at 50 μg/ml (HAX42 peptides, second column): 0.43
12 | H2N—K(dns)NCCGNGNSTG ({K(dns)}-NCCGNGNSTG-NH2; cysteine pairing not given here) [ZElan093] | – | – | – | – | – | Binding value at 25 μg/ml (HAX42 peptides, first column): 1.88; Binding value at 25 μg/ml (HAX42 peptides, second column): 1.37; Binding value at 25 μg/ml (HAX42 peptides, third column): 1.33
13 | H2N—K(dns)PGDYNCCGNG ({K(dns)}-PGDYNCCGNG-NH2; cysteine pairing not given here) [ZElan092] | – | – | – | – | – | Binding value at 25 μg/ml (HAX42 peptides, first column): 1.41; Binding value at 25 μg/ml (HAX42 peptides, second column): 1.90; Binding value at 25 μg/ml (HAX42 peptides, third column): 0.91
14 | H2N—K(dns)PGDYNCCGNGNSTG [ZElan091] | – | – | – | – | – | Binding value at 25 μg/ml (HAX42 peptides, first column): 2.02; Binding value at 25 μg/ml (HAX42 peptides, second column): 1.37; Binding value at 25 μg/ml (HAX42 peptides, third column): 1.20

— patent US7053177B1, “Random peptides that bind to gastro-intestinal tract (GIT) transport receptors and related methods” (Cytogen Corporation, priority 1997, dated 2006)
